Data set [1] is described as follows: Apparent solubility study (24 h, 25 °C, HPLC). Type of data set: physicochemical. As for the experimental part:
(§1) The injection volume differed depending on the assay. […] The duration of the run was 10 min.
Phosphate buffer at pH 6.8 was prepared as follows: 250 mL of 0.2 N potassium dihydrogen phosphate solution was placed in a 1000 mL volumetric flask, and then 112 mL of 0.2 N sodium hydroxide solution was added. The volume was made up to 1000 mL with purified water. Hydrochloric acid solution pH 1.2 was prepared from the analytically weighed amount following the manufacturer’s (Alfachem, Poznań, Poland) recommendations.
An excess amount of powder (corresponding to 6 mg of each active substance) was placed in a 10 mL glass tube. Then, 2.0 mL of phosphate buffer (pH 6.8) or HCl solution (pH 1.2) was added and stirred at 100 rpm at room temperature (25 ± 0.1 °C) for 24 h.

Data set [2] can be described thus: PAMPA GIT permeability assay. Type of data set: in vitro ADME. To be noted: GIT model, donor pH ≈6.8, 4 h, 37 °C. As for the experimental part:
as §1
(In general: The PAMPA barrier holds no transporters, so it reflects passive diffusion.)

For data set [3] the following is noted: PAMPA, 4 h, pH 7.4.
Experimental: Concentrations of curcumin and hesperetin in samples collected during solubility, dissolution, and permeability studies were determined using HPLC with the DAD detector (HPLC-DAD). Shimadzu Nexera (Shimadzu Corp., Kyoto, Japan) equipped with an SCL-40 system controller, a DGU-403 degassing unit, an LC-40B XR solvent delivery module, a SIL-40C autosampler, a CTO-40C column oven, and an SPD-M40 photodiode array detector were employed in this investigation. For the stationary phase, a Dr. Maisch ReproSil-Pur Basic-C18 100 Å column with 5 µm particle size and 250 × 4.60 mm (Dr. Maisch, Ammerbuch-Entringen, Germany) was used. The mobile phase was HPLC-grade methanol:0.1% acetic acid (80:20 v/v). The mobile phase was vacuum filtered through a 0.45 µm nylon filter (Phenomenex, Torrance, CA, USA). The experimental conditions were as follows: a 1.0 mL/min flow rate, a wavelength of 420 nm for curcumin and 288 nm for hesperetin, and a column temperature of 30 °C. The injection volume differed depending on the assay. For the solubility study, it was 2 µL, whereas for the dissolution and permeability assays, it was 10 µL. […]
In vitro, gastrointestinal (GIT) and blood–brain barrier (BBB) permeability was studied using the Parallel Artificial Membrane Permeability Assay (PAMPA) models. […] The results are expressed as a concentration of the compound in the acceptor solution.

Molecules are shown by their SMILES. In brackets after ≈: the same amount, converted by molar mass. Read-outs that look alike come from different tables or passages of the source.

In the case of `COc1cc(/C=C/C(=O)CC(=O)/C=C/c2ccc(O)c(OC)c2)ccc1O` [Curcumin], the solubility at 24 h was 0.1 ± 0.01 µg/mL (≈ 0.271 µM) in data set [1] (HCl solution, pH 1.2 HCl, read-out: Curcumin Concentration (apparent solubility)) and 0.14 ± 0.02 µg/mL (≈ 0.38 µM) in data set [1] (aqueous buffer, thermodynamic from solid, pH 6.8 phosphate buffer, read-out: Curcumin Concentration (apparent solubility)). The “Curcumin Concentration in the acceptor solution” value is 3.34 × 10^−6 ± 1.94 × 10^−6 c mg/mL in data set [2] and 1.86 × 10^−5 ± 2.48 × 10^−6 c mg/mL in data set [3].

As for `COc1ccc([C@@H]2CC(=O)c3c(O)cc(O)cc3O2)cc1O` [Hesperetin], the solubility at 24 h is 4 ± 1 µg/mL (≈ 13.2 µM) in data set [1] (HCl solution, simulated gastric fluid, thermodynamic from solid, pH 1.2 HCl, read-out: Hesperetin Concentration (apparent solubility)) and 5 ± 1 µg/mL (≈ 16.5 µM) in data set [1] (aqueous buffer, thermodynamic from solid, pH 6.8 phosphate buffer, read-out: Hesperetin Concentration (apparent solubility)). Also, the “Hesperetin Concentration in the acceptor solution” value in data set [2] is reported as 2.58 × 10^−5 ± 6.16 × 10^−6 c mg/mL; in data set [3] it was 3.89 × 10^−5 ± 1.66 × 10^−5 c mg/mL.

(Values after paper PMC11124940, “Sweeteners Show a Plasticizing Effect on PVP K30—A Solution for the Hot-Melt Extrusion of Fixed-Dose Amorphous Curcumin-Hesperetin Solid Dispersions” (Pharmaceutics, 2024).)
